Source: patent US20040053962A1, “Methods for inhibiting proliferation and inducing apoptosis in cancer cells” (priority 2003, published 2004)

Legend:
Format in all cases: cell-based
[1] = system: MiaPaCa-2 pancreatic cancer cell line; experiment: [3H]-thymidine incorporation (DNA synthesis), MiaPaCa-2; set-up: effect on proliferation (thymidine incorporation): dose or concentration left out as unconfirmed
Method: (§1) Cell culture. The following pancreatic cancer cell lines were used: MiaPaCa-2 and PANC-1 (poorly-differentiated); Capan-1 and Capan-2 (well-differentiated); and HPAF and AsPC-1 (pleomorphic). These were purchased from American Type Culture Collection (Rockville, Md.). PANC-1 and MiaPaCa-2 were grown in DMEM media; HPAF and AsPC-1 were grown in MEM media; and Capan-1 and Capan-2 were grown in-McCoy's media. Media were supplemented with 10% FBS, and the cells were grown as monolayers in a humidified atmosphere of […] and 5% CO2 at 37° C. The cells were regularly seeded into 75 cm^2 flask with media changed every other day. For experiments, cells were grown to 80% confluence, digested with trypsin-EDTA, and plated either in 12 or 24-well plates at a concentration of 50,000/ml, as appropriate.
(§2) DNA synthesis by [^3H]-Thymidine incorporation. Cells were plated in 12 or 24-well plates. After reaching 70% confluence, they were incubated in serum-free media for 24 hours, which was then replaced with fresh serum-free media with or without the appropriate concentration of leukotriene B4 receptor antagonist LY293111 (62.5-1000 nM), LTB4 (100-400 nM), or both. After the appropriate period of culture, cellular DNA synthesis was assayed by adding 0.5 μCi/well of [^3H]-methyl-thymidine and incubating for another 2 hours. Then, the cells were washed twice with PBS, fixed with 10% trichloroacetic acid (“TCA”) for 30 minutes, and solubilized by adding 0.4 M NaOH to each well. Radioactivity, indicating incorporation of ^3H-thymidine into DNA, was measured by adding a scintillation cocktail and counting on a scintillation counter (LKB RackBeta, Wallac, Turku, Finland)

[2] = system: Bcl-2 in MCF-7 breast cancer cells; experiment: Bcl-2 expression by western blotting; settings: MCF-7, LTB4 100 nM
[3] = system: HPAF pancreatic cancer cell line; experiment: [3H]-thymidine incorporation (DNA synthesis), HPAF; set-up: effect on proliferation (thymidine incorporation): dose or concentration left out as unconfirmed
Method: as §1, §2

CCCCC/C=C\C[C@@H](O)/C=C/C=C/C=C\[C@@H](O)CCCC(=O)O [LTB4, Leukotriene B4, reference compound]
increase of proliferation compared with control ([1]; MiaPaCa-2 (FIG. 6A), 100 nM LTB4, 24 hours): 25% | thymidine incorporation compared with control ([1]; MiaPaCa-2, LTB4 100 nM for 72 hours): more than doubled | effect on proliferation (thymidine incorporation) ([1]; MiaPaCa-2, concentration and time-dependent, P<0.0001): stimulated the proliferation | Bcl-2 expression (western blot) [2]: increase expression | increase of proliferation compared with control ([3]; HPAF (FIG. 6B), 100 nM LTB4, 24 hours): 25% | thymidine incorporation compared with control ([3]; HPAF, LTB4 100 nM for 72 hours): more than doubled | effect on proliferation (thymidine incorporation) ([3]; HPAF, concentration and time-dependent, P<0.0001): stimulated the proliferation

CCCc1c(OCCCCc2nnn[nH]2)ccc(C(C)=O)c1O [LY171883, 1-(2-hydroxy-3-propyl-4-(4-(1H-tetrazol-5-yl)butoxy)phenyl)ethanone, reference compound]
effect on proliferation (thymidine incorporation) ([1]; MiaPaCa-2, 48 hours, likely a toxic effect, P=0.2316): only affected proliferation at the highest concentration | effect on proliferation (thymidine incorporation) ([3]; HPAF, 48 hours, likely a toxic effect, P=0.2217): only affected proliferation at the highest concentration
